What was measured:
[1] = target: Acetylcholinesterase (Homo sapiens, UniProt P22303)
Description: In vitro inhibition of acetylcholinesterase isolated from human erythrocytes.

[2] = physchem
Description: Compound was evaluated for its acid dissociation constant

[3] = physchem; conditions: buffer, pH 7.5
Description: Lipophilic dissociation constant is determined as a measure of partitioning of neutral molecules at pH 7.5

[4] = physchem; conditions: octanol/water
Description: Partition coefficient (logP)

Sequence of Acetylcholinesterase (P22303 whole entry): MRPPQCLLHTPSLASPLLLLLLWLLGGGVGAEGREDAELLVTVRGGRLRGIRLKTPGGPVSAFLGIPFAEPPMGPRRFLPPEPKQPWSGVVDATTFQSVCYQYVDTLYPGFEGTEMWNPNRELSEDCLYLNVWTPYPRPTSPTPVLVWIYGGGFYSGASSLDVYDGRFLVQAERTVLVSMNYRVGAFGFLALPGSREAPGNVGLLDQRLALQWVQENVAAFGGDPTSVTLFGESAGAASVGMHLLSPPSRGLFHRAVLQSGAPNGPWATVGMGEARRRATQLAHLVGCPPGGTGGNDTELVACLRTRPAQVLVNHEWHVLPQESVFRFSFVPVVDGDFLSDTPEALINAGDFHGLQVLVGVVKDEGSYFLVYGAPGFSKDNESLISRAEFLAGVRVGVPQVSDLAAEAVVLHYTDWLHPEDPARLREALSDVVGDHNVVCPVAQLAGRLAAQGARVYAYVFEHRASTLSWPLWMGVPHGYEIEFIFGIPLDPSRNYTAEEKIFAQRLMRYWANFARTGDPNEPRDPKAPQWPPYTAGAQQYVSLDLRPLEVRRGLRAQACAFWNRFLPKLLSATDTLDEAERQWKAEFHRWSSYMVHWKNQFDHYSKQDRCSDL

Structure (SMILES) | IC50 [1] [nM] | pKa [2] | logD [3] | logP [4]
Nc1c2c(nc3ccc(Cl)cc13)CCCC2 | 3680 | – | – | –
Nc1c2c(nc3c1CCC3)CCCC2 [IPIDACRINE] | – | 10.2 | – | –
Nc1c2c(nc3cnccc13)OCCC2 | 42 | 5.6 | – | –
COc1cccc2nc3c(c(N)c12)CCCC3 | 615 | 10.4 | – | –
Nc1c2c(nc3ccc(Cl)cc13)OCCC2 | 9810 | – | – | –
Nc1c2c(nc3cccc(Cl)c13)OCCC2 | 313 | 6.6 | – | –
Nc1c2c(nc3cccc(F)c13)CCCC2 | 78 | 9.1 | – | –
Nc1c2c(nc3c1CCCC3)CCCC2 [OCTAAMINOACRIDINE] | 360 | 11 | – | –
Nc1c2c(nc3ncccc13)CCCC2 | 429 | 8.8 | – | –
Nc1c2c(nc3c1CCCO3)CCCC2 | 455 | 7.8 | – | –
COc1cccc2nc3c(c(N)c12)CCCO3 | 606 | 8.11 | – | –
Nc1c2c(nc3cccc(F)c13)OCCC2 | 335 | 6.9 | – | –
Nc1c2c(nc3ncccc13)OCCC2 | 6260 | 6.4 | – | –
Cc1cccc2nc3c(c(N)c12)CCCC3 | 99 | 9.98 | – | –
Nc1c2c(nc3ccccc13)OCCC2 | 266 | 7.8 | 1.37 | 1.86
Nc1c2c(nc3cnccc13)CCCC2 | 2600 | 7.3 | – | –
Nc1c2c(nc3c1CCCO3)CCC2 | 1120 | 7.8 | – | –
Cc1cccc2nc3c(c(N)c12)CCCO3 | 150 | 8.06 | 1.63 | 2.28
Nc1c2c(nc3cccc(Cl)c13)CCCC2 | 39 | 9.3 | – | –

Reference: ChEMBL document CHEMBL1126001, “Physical parameters for brian uptake: optimizing log P, log D and pKa of T H A” (Bioorg Med Chem Lett, 1991)
